This is an account of results in patent US20250368614A1, “COMPOUNDS AND METHODS FOR YAP/TEAD MODULATION AND INDICATIONS THEREFOR” (OPNA BIO SA, priority 2023, published 2025).

The subject of the experiment is TEAD-dependent transcription (12XGTIIC TEAD response element luciferase reporter) in MSTO-211H cells. As to the kind of experiment: TEAD-dependent transcription cell-based luciferase reporter assay in MSTO-211H+12XGTIIC cells. The conditions noted are these: Homo sapiens; MSTO-211H+12XGTIIC reporter cells, 24 hours compound incubation, luminescence normalized to cell viability signal, geometric mean; read-out: MSTO-211H GMean IC50 (uM) Cell Assay Reporter Cell Variant: TEAD. The text has this: Determine Inhibitor Activity Against TEAD-Dependent Transcription in a Cell-Based Reporter Assay
The human mesothelioma cell line MSTO-211H was stably transfected with a pGL4.21 plasmid containing a synthetic promoter with 12 copies of the GTIIC TEAD response element that drives the expression of a luciferase reporter gene^1 using Lipofectamine transfection reagent (Thermo Fisher). Transfected cells were selected using puromycin and single cell clones expressing this construct (referred to as MSTO-211H+12XGTIIC) were generated by limiting dilution. MSTO-211H cells was characterized by genetic alterations in key components of the Hippo pathway^2, resulting in up-regulation of YAP/TEAD-mediated transcription. […] To evaluate TEAD inhibitors, the MSTO-211H+12XGTIIC cell line was seeded in a 96-well plate in 50 μL of culture media at 1×10^4 cells per well and incubated at 37° C. overnight. Serial dilutions of compounds (in total volume of 50 μL of culture media) were added to the cells and incubated at 37° C. for 24 hours. Each plate included cells treated with DMSO as high controls and cells treated with 20 μM of the reference compound K-975 (a known TEAD inhibitor^3) as low controls. Cell viability was assayed by the addition of 25 μL of CellTiter-Fluor reagent (Promega) followed by a 30-minute incubation at 37° C. and quantification of the fluorescence signal (Ex400/Em505). Subsequently, luciferase expression was assayed by the addition of 25 μL of ONE-Glo reagent (Promega) followed by a 10-minute incubation at room temperature and quantification of the luminescence signal. The luminescence signal was normalized to the fluorescence signal to correct for any loss in cell viability over the 24-hour compound incubation period. The percentage of inhibition of normalized luminescence signal, indicative of compound-mediated inhibition of TEAD-dependent transcription, at individual compound concentrations relative to high and low controls was calculated. The data were analyzed by using nonlinear regression to generate IC50 values for individual compounds.
Background: In a reporter assay the amount or activity of a reporter protein is the signal.
For the compound `O=C(Cc1c[nH]cn1)N1CCc2c(cccc2Nc2ccc(C(F)(F)F)cc2)C1` [Compound O-0053, 2-(1H-imidazol-4-yl)-1-(5-((4-(trifluoromethyl)phenyl)amino)-3,4-dihydroisoquinolin-2(1H)-yl)ethan-1-one], the IC50 was 0.001 to 10 µM.

Take `O=C(CCc1cnc[nH]1)N1CCc2c(cccc2Nc2ccc(C(F)(F)F)cc2)C1` [Compound O-0054, 3-(1H-imidazol-5-yl)-1-(5-((4-(trifluoromethyl)phenyl)amino)-3,4-dihydroisoquinolin-2(1H)-yl)propan-1-one]: the IC50 was in the range of 0.001 to 10 µM.

For the compound `O=C1NC(=O)C(CC(=O)N2CCc3c(cccc3Nc3ccc(C(F)(F)F)cc3)C2)N1` (stereo not drawn) [Compound O-0055, 5-(2-oxo-2-(5-((4-(trifluoromethyl)phenyl)amino)-3,4-dihydroisoquinolin-2(1H)-yl)ethyl)imidazolidine-2,4-dione], the concentration for half-maximal inhibition (IC50) is 0.001 to 10 µM.

As to `NC(=O)NCCC(=O)N1CCc2c(cccc2Nc2ccc(C(F)(F)F)cc2)C1` [Compound O-0056, 1-(3-oxo-3-(5-((4-(trifluoromethyl)phenyl)amino)-3,4-dihydroisoquinolin-2(1H)-yl)propyl)urea], the concentration for half-maximal inhibition (IC50) fell in the range of 0.001 to 10 µM.

Turning to `NC(=O)N1CCC(C(=O)N2CCc3c(cccc3Nc3ccc(C(F)(F)F)cc3)C2)C1` (stereo not drawn) [Compound O-0057, 3-(5-((4-(trifluoromethyl)phenyl)amino)-1,2,3,4-tetrahydroisoquinoline-2-carbonyl)pyrrolidine-1-carboxamide], the concentration for half-maximal inhibition (IC50) was in the range of 0.001 to 10 µM.

As to `O=C(c1cccc2[nH]c(C(F)(F)F)nc12)N1CCc2c(cccc2Nc2ccc(C(F)(F)F)cc2)C1` [Compound O-0058, (2-(trifluoromethyl)-1H-benzo[d]imidazol-4-yl)(5-((4-(trifluoromethyl)phenyl)amino)-3,4-dihydroisoquinolin-2(1H)-yl)methanone], the IC50 lay within 0.001 to 10 µM.

As for `O=C(Cc1cn[nH]c1)N1CCc2c(cccc2Nc2ccc(C(F)(F)F)nc2)C1` [Compound O-0059, 2-(1H-pyrazol-4-yl)-1-(5-((6-(trifluoromethyl)pyridin-3-yl)amino)-3,4-dihydroisoquinolin-2(1H)-yl)ethan-1-one], the IC50 was 0.001 to 10 µM.

Regarding `O=C(c1cccc2cc[nH]c12)N1CCc2c(cccc2Nc2ccc(C(F)(F)F)nc2)C1` [Compound O-0060, (1H-indol-7-yl)(5-((6-(trifluoromethyl)pyridin-3-yl)amino)-3,4-dihydroisoquinolin-2(1H)-yl)methanone], the IC50 was in the range of 0.001 to 10 µM.

Turning to `O=C(NC1CC1)N1CCC(C(=O)N2CCc3c(cccc3Nc3ccc(C(F)(F)F)cn3)C2)C1` (stereo not drawn) [Compound O-0092, N-cyclopropyl-3-(5-((5-(trifluoromethyl)pyridin-2-yl)amino)-1,2,3,4-tetrahydroisoquinoline-2-carbonyl)pyrrolidine-1-carboxamide], the half-maximal inhibitory concentration (IC50) fell in the range of 0.001 to 10 µM.

Consider `O=C(Nc1ccccn1)N1CCC(C(=O)N2CCc3c(cccc3Nc3ccc(C(F)(F)F)cn3)C2)C1` (stereo not drawn) [Compound O-0093, N-(pyridin-2-yl)-3-(5-((5-(trifluoromethyl)pyridin-2-yl)amino)-1,2,3,4-tetrahydroisoquinoline-2-carbonyl)pyrrolidine-1-carboxamide], for which the IC50 lay within 0.001 to 10 µM.

`O=C(NC1CC1)N1CCC(C(=O)N2CCc3c(cccc3Nc3ccc(C(F)(F)F)cc3F)C2)C1` (stereo not drawn) [Compound O-0094, N-cyclopropyl-3-(5-((2-fluoro-4-(trifluoromethyl)phenyl)amino)-1,2,3,4-tetrahydroisoquinoline-2-carbonyl)pyrrolidine-1-carboxamide]: the IC50 was 0.001 to 10 µM.

Consider `O=C(Nc1ccccn1)N1CCC(C(=O)N2CCc3c(cccc3Nc3ccc(C(F)(F)F)cc3F)C2)C1` (stereo not drawn) [Compound O-0095, 3-(5-((2-fluoro-4-(trifluoromethyl)phenyl)amino)-1,2,3,4-tetrahydroisoquinoline-2-carbonyl)-N-(pyridin-2-yl)pyrrolidine-1-carboxamide], for which the half-inhibitory concentration (IC50) lay within 0.001 to 10 µM.

On to `O=C(NC1CC1)N1CCC(C(=O)N2CCc3c(cccc3Nc3ccc(C(F)(F)F)nc3)C2)C1` (stereo not drawn) [Compound O-0096, N-cyclopropyl-3-(5-((6-(trifluoromethyl)pyridin-3-yl)amino)-1,2,3,4-tetrahydroisoquinoline-2-carbonyl)pyrrolidine-1-carboxamide], for which the IC50 lay within 0.001 to 10 µM.

Regarding `O=C(Nc1ccccn1)N1CCC(C(=O)N2CCc3c(cccc3Nc3ccc(C(F)(F)F)nc3)C2)C1` (stereo not drawn) [Compound O-0097, N-(pyridin-2-yl)-3-(5-((6-(trifluoromethyl)pyridin-3-yl)amino)-1,2,3,4-tetrahydroisoquinoline-2-carbonyl)pyrrolidine-1-carboxamide], the half-maximal inhibitory concentration (IC50) fell in the range of 0.001 to 10 µM.

Consider `O=C(NC1CC1)N1CCC(C(=O)N2CCc3c(cccc3Nc3ccc(C(F)(F)F)c(F)c3)C2)C1` (stereo not drawn) [Compound O-0098, N-cyclopropyl-3-(5-((3-fluoro-4-(trifluoromethyl)phenyl)amino)-1,2,3,4-tetrahydroisoquinoline-2-carbonyl)pyrrolidine-1-carboxamide], for which the IC50 lay within 0.001 to 10 µM.

For `O=C(NCCC(=O)N1CCc2c(cccc2Nc2ccc(C(F)(F)F)nc2)C1)Nc1ccccn1` [Compound O-0184, 1-(3-oxo-3-(5-((6-(trifluoromethyl)pyridin-3-yl)amino)-3,4-dihydroisoquinolin-2(1H)-yl)propyl)-3-(pyridin-2-yl)urea], the IC50 fell in the range of 0.001 to 10 µM.

In the case of `O=C(NCCC(=O)N1CCc2c(cccc2Nc2ccc(C(F)(F)F)c(F)c2)C1)Nc1ccccn1` [Compound O-0185, 1-(3-(5-((3-fluoro-4-(trifluoromethyl)phenyl)amino)-3,4-dihydroisoquinolin-2(1H)-yl)-3-oxopropyl)-3-(pyridin-2-yl)urea], the IC50 was 0.001 to 10 µM.

As for `O=C(NCCC(=O)N1CCc2c(cccc2Nc2ccc(C(F)(F)F)cn2)C1)Nc1ccccn1` [Compound O-0186, 1-(3-oxo-3-(5-((5-(trifluoromethyl)pyridin-2-yl)amino)-3,4-dihydroisoquinolin-2(1H)-yl)propyl)-3-(pyridin-2-yl)urea], the IC50 lay within 0.001 to 10 µM.

Regarding `O=C(NCCC(=O)N1CCc2c(cccc2Nc2ccc(C(F)(F)F)cn2)C1)NC1CC1` [Compound O-0187, 1-cyclopropyl-3-(3-oxo-3-(5-((5-(trifluoromethyl)pyridin-2-yl)amino)-3,4-dihydroisoquinolin-2(1H)-yl)propyl)urea], the IC50 lay in the range of 0.001 to 10 µM.

With `O=C(NCCC(=O)N1CCc2c(cccc2Nc2ccc(C(F)(F)F)c(F)c2)C1)NC1CC1` [Compound O-0188, 1-cyclopropyl-3-(3-(5-((3-fluoro-4-(trifluoromethyl)phenyl)amino)-3,4-dihydroisoquinolin-2(1H)-yl)-3-oxopropyl)urea], the IC50 fell in the range of 0.001 to 10 µM.

For `NC(=O)NCCC(=O)N1CCc2c(cccc2Nc2ccc(C(F)(F)F)nc2)C1` [Compound O-0189, 1-(3-oxo-3-(5-((6-(trifluoromethyl)pyridin-3-yl)amino)-3,4-dihydroisoquinolin-2(1H)-yl)propyl)urea], the IC50 is 0.001 to 10 µM.

As for `NC(=O)NCCC(=O)N1CCc2c(cccc2Nc2ccc(C(F)(F)F)c(F)c2)C1` [Compound O-0190, 1-(3-(5-((3-fluoro-4-(trifluoromethyl)phenyl)amino)-3,4-dihydroisoquinolin-2(1H)-yl)-3-oxopropyl)urea], the IC50 fell in the range of 0.001 to 10 µM.

In the case of `Nc1cccc(CNC(=O)N2CCc3c(cccc3Nc3ccc(C(F)(F)F)cc3)C2)n1` [Compound O-0191, N-((6-aminopyridin-2-yl)methyl)-5-((4-(trifluoromethyl)phenyl)amino)-3,4-dihydroisoquinoline-2(1H)-carboxamide], the IC50 lay in the range of 0.001 to 10 µM.

Take `NC(=O)NCCC(=O)N1CCc2c(cccc2Nc2ccc(C(F)(F)F)cc2F)C1` [Compound O-0192, 1-(3-(5-((2-fluoro-4-(trifluoromethyl)phenyl)amino)-3,4-dihydroisoquinolin-2(1H)-yl)-3-oxopropyl)urea]: the IC50 was in the range of 0.001 to 10 µM.

Regarding `O=C(NCCC(=O)N1CCc2c(cccc2Nc2ccc(C(F)(F)F)cc2F)C1)NC1CC1` [Compound O-0193, 1-cyclopropyl-3-(3-(5-((2-fluoro-4-(trifluoromethyl)phenyl)amino)-3,4-dihydroisoquinolin-2(1H)-yl)-3-oxopropyl)urea], the IC50 was 0.001 to 10 µM.

For `O=C(NCc1ccccn1)N1CCc2c(cccc2Nc2ccc(C(F)(F)F)cc2)C1` [Compound O-0194, N-(pyridin-2-ylmethyl)-5-((4-(trifluoromethyl)phenyl)amino)-3,4-dihydroisoquinoline-2(1H)-carboxamide], the IC50 is 0.001 to 10 µM.

Regarding `O=C(NCCC(=O)N1CCc2c(cccc2Nc2ccc(C(F)(F)F)nc2)C1)NC1CC1` [Compound O-0195, 1-cyclopropyl-3-(3-oxo-3-(5-((6-(trifluoromethyl)pyridin-3-yl)amino)-3,4-dihydroisoquinolin-2(1H)-yl)propyl)urea], the IC50 was in the range of 0.001 to 10 µM.

The IC50 is the concentration at which inhibition is half-maximal.
